# According to US20170252433A1, “PSMA-RELATED THERAPIES” (Memorial Sloan Kettering Cancer Center, priority 2014, published 2017):
# Tests used:
# [1] = tested on: PSMA-expressing prostate cancer cells (LNCaP-wt, PC3-hPSMA) and PC3-wt; test: Cytoplasmic calcium quantification (Fluo4 assay); type: cell-based, human
# Experimental: Cells were seeded at a density of 10,000 per well on a 96-well plate and grown overnight. Loading of the calcium-sensing dye Fluo4 (Life Technologies, Calrsbad, Calif.) was performed according to the manufacturer's instructions. Where indicated the cells were treated with thapsigargin (1 μM, Tocris, Minneapolis, Minn.), L-Quisqualic acid (110 μM, Tocris), 3,5-DHPG (0.67 mM, Tocris), L-AP3 (125 μM, Tocris), U73122 (50 μM, Tocris), and 2-PMPA (100 μM, Tocris) immediately before measuring calcium levels, with a SpectraMax M5 plate reader (Molecular Devices, Sunnyvale, Calif.).
# The effect of PSMA expression on calcium homeostasis in prostate cancer cell lines was evaluated using the fluorimetric Fluo4 assay kit (Invitrogen), according to the supplier's instructions. The plate was excited at 490 nm, and fluorescence emission was monitored at 520 nm with the SpectraMax M5 plate reader (Molecular Devices). […] To examine calcium accumulation in the cytoplasm, the cells were treated with thapsigargin (1 μM, Tocris) immediately prior to taking measurements with the plate reader. […] Furthermore, we investigated whether PSMA facilitates calcium signaling via the mGluR Group I receptors through its enzymatic activity. The cells were treated with either L-Quisqualic acid (110 μM; mGluR I agonist, Tocris), L-AP3 (125 μM; mGluR I antagonist, Tocris) or a PSMA inhibitor (100 μM, Tocris), immediately prior to taking calcium measurements.
# [2] = tested on: nitric oxide synthase; test: Nitric oxide synthase activity (total nitrate levels); type: cell-based, human; conditions: 5 μM, 48 h
# Experimental: Gene expression array was performed after TRIzol-based RNA extraction on an U133A 2.0 gene array (Affymetrix, Santa Clara, Calif.). The output of the androgen receptor (AR) pathway was assessed by measuring the levels of prostate specific antigen (PSA). LNCaP cells that have a functional AR pathway were obtained from ATCC (Manassas, Va.) and grown to confluence. Then they were treated for 48 h with 2-PMPA (5 μM) for 48 h, followed by screening of the culture medium for secreted PSA with the DELFIA PSA assay (Perkin Elmer, Waltham, Mass.). The levels of nitric oxide attributed to nitric oxide synthase's activity and the concentration of total secreted prostaglandins were quantified with the corresponding kits purchased from Cayman Chemicals (Ann Arbor, Mich.). Alterations in energy production due to signaling changes were determined through quantification of the intracellular NAD+ and ATP lelels, using the NAD assay from Cayman Chemicals (Ann Arbor, Mich.) and the StayBrite ATP kit from Biovision (Milpitas, Calif.).
# Furthermore, it was examined whether PSMA inhibition affects the activity of nitric oxide synthase and the levels of prostaglandins, since both Akt and Ca+2 regulate these processes. […]
# [3] = tested on: LNCaP xenografts; test: In vivo chemotherapy, LNCaP xenografts; parameters: species or system male athymic, nude mice; conditions: 0.4 mM, 100 μL retro-orbital injection daily from implantation
# Experimental: Male, athymic, nude mice (Harlan Laboratories, Indianapolis, Ind.) were implanted with LNCaP xenografts (3 million cells in 100 μL Matrigel) on each flank. Immediately post xengraft implantation, the mice were treated daily iv with 2-PMPA (0.4 mM, 100 μL retro-orbital injection). Tumor volume was assessed by measuring the tumor with microcalipers. Combination therapy was performed with male athymic, nude mice with LNCaP xenografts, which were treated daily post tumor detection. Chemotherapy was administered by iv (100 μL retro-orbital injection) with animals receiving either enzalutamide (0.15 mM), 2-PMPA (3 mM) or both compounds (0.15 mM enzalutamide and 3 mM 2-PMPA). Male athymic, nude mice with PC3-PSMA xenografts (3 million cells in 100 μL Matrigel) were treated with either vehicle (DMSO) or a combination of AZD8055 and XL184 (AZD8055 0.4 mM and XL184 8 μM 100 μL retro-orbital injection).
# Tumor growth was examined using daily treatment of male athymic, nude mice with LNCaP xenografts on their flanks Each animal's flanks were injected with 3,000,000 cells in 100 μL matrigel, and the animals were immediately treated with 2-PMPA (0.4 mM, 100 μL retro-orbital injection). Tumor volume was assessed by measuring the tumor with microcalipers. […] In a different study, male athymic, nude mice with LNCaP xenografts were treated daily post tumor detection, with either enzalutamide (0.15 mM, 100 μL retro-orbital injection), 2-PMPA (3 mM, 100 μL retro-orbital injection) or both compounds (0.15 mM enzalutamide and 3 mM 2-PMPA, 100 μL retro-orbital injection). […] (FIG. 9c-d).
# [4] = tested on: PSMA-expressing (LNCaP-PSMA+ve) and PSMA-negative (LNCaP-PSMA-ve) cells; test: Cell viability with ROS-generating drug Elesclomol (Alamar Blue); type: cell-based, human; conditions: 2-PMPA 250 nM, 48 h; Elesclomol 250 nM; FIG. 8 C and D
# Experimental: Cell viability of (A) PSMA-expressing (LNCaP-PSMA+ve) and (B) PSMA-negative cells (LNCaP-PSMA-ve where PSMA expression was knocked down with shRNA) was determined via the fluorescence-based Alamar Blue method (λex=565 nm and λem=585 nm). Cell viability was assessed 48 h after drug administration with either vehicle (DMSO) or the ROS-generating drug Elesclomol (250 nM, Selleck Chemicals). […] The cells were treated for 48 h, and cell viability was determined with the Alamar Blue method.
structure (smiles),measurement,setting,value
O=C(O)CCC(CP(=O)(O)O)C(=O)O (centres unmarked) [2-PMPA],cytoplasmic calcium levels,"[1]; PSMA inhibition compared with Phospholipase C inhibitor U73122 50 μM, FIG. 1d",reduction in calcium levels
same,cytoplasmic calcium levels,"[1]; PSMA-expressing cells, PSMA inhibitor 100 μM, L-AP3 125 μM, FIG. 1c",lowered calcium levels
same,nitrate concentration,[2]; PC3-wt cells that do not express PSMA,did not affect nitrate concentration
same,nitric oxide synthase activity (nitrate levels),"[2]; PSMA-expressing cells, FIG. 5c-d",decreased nitric oxide synthase activity
same,tumor size and growth,[3],smaller tumors that grew slowly
same,tumor initiation,[3]; FIG. 9a,did not affect tumor initiation
same,animal survival,[3]; FIG. 9b,extended the animals survival
same,resistance to ROS-generating drug (cell viability),[4],abrogates drug resistance and renders the cells susceptible to cell death
